Results reported in US10836743B2, “Fluorinated cyclopropylamine compound, preparation method therefor, pharmaceutical composition thereof, and uses thereof” (SHANGHAI INSTITUTE OF MATERIA MEDICA, CHINESE ACADEMY OF …, priority 2016, dated 2020).
Where “and” joins values, the source holds several entries; their conditions need not be identical. Equal entries are not always repeated. Where two headings read alike, the source gives them in different places.

Columns and labels:
Human recombinant MAOA = Human recombinant MAOA (Homo sapiens (Human), UniProt P21397); experiment: MAOA in vitro activity (MAO-Glo); type: biochemical
human recombinant MAOB = human recombinant MAOB (Homo sapiens (Human), UniProt P27338); experiment: MAOB in vitro activity (MAO-Glo); type: biochemical
[1] = system: CD86 expression in leukemia cell line MV4-11; experiment: CD86 gene expression activation test (quantitative real-time PCR); type: cell-based, human; conditions: CD86 activation fold, 24 h
Method: CD86 Gene Expression Activation Test: Experimental Principle:
Quantitative Real-time PCR is a method for measuring the total amount of the product after each polymerase chain reaction (PCR) cycle by using fluorescent chemicals in a DNA amplification reaction. Quantitative analysis of a specific DNA sequence in a sample to be tested was conducted by internal reference method or external reference method. There is a linear relationship between the Ct value of the template and the initial copy number of the template during the exponential phase of PCR amplification, which serves as a basis for quantification.
• 1. 350 w/mL MV4-11 cells were accurately counted in a 12-well plate at 900 μL per well. • 2. […] The sample was transferred to a 1.5 mL EP tube, centrifuged at 2000 rpm for 3 min, and the supernatant was removed. […] of trizol was added for lysis and allowed to stand for 3 min. • 4. […] The supernatant was removed, and the EP tube was air-dried in a fume hood. 20-30 μL of RNase inactivated deionized water was added and mixed to measure the RNA concentration. • 8. […] 100 μL of deionized water was added to the EP tube and mixed. • 10. […]

leukemia cells MV4-11 = experiment: Inhibitory activity on growth by MTS method; type: cell-based; conditions: Homo sapiens
Method: 2. Test of Inhibitory Activities of Compound on Growth by MTS Method Experimental Principle:
MTS assay detects the inhibitory effect of the tested compound to the growth of leukemia cells MV (4:11). The principle is that succinate dehydrogenase in mitochondria in living cells can reduce exogenous thiazole blue to insoluble blue crystal Formazan.
• 1. MV4-11 cells in logarithmic growth phase were accurately counted at 16000 cells/mL, and the diluted cell solution was added to 96-well plates at 90 μL per well. • 2. Fresh medium was taken and sequentially added to a 96-well plate with cell fluid at 90 μL per well. • 3. […] 2 μL of the diluted compound was respectively added to a 96-well plate containing 98 μL of blank medium, and for DMSO group, 98 μL of blank medium was added into 2 μL of DMSO, and mixed for further use. • 5. The compound mixed with the medium was separately added to a 96-well plate in which cells were plated, in triplicate, 20 μL per well, and were mixed. The blank group was added with 200 μL of IMDM medium, and the DMSO group was added with 180 μL of the cell-containing medium in DMSO diluted with the medium. • 6. […]

[2] = system: human acute myeloid leukemia MV4-11 subcutaneous transplantation tumor; experiment: Growth of subcutaneous transplantation tumor in nude mice; type: in vivo, Balb/c nude mice; conditions: 10 mg/kg qd p.o., 21 days
Excerpt: Example 3 Evaluation of Chronic Efficacy at the Animal Level:
Inhibitory Effect of LSD1 Inhibitor on the Growth of Subcutaneous Transplantation Tumor in Nude Mice of Human Acute Myeloid Leukemia MV4-11 […]
Animals: Balb/c nude mice, female, weighing 17-20 g, were purchased from Beijing Weitong Lihua Experimental Animal Technology Co., Ltd., and the number of animals per group was 5.
Cell line: MV4-11 cell line was used to inoculate at the right axilla of the nude mice, and the inoculation amount was 5×10^6/animal. The experiment can start after the transplanted tumor was formed.
For female nude mice weighing 20±3 g, MV4-11 cells were inoculated into the right axilla of nude mice at a inoculation amount of 5×10^6/mouse. After tumor formation, the diameter of the transplanted tumor was measured with a vernier caliper. And after the tumor has grown into 100-300 mm^3, the animals were divided into model control group and drug-administered group according to body weight and tumor volume, with 5 mouse in each group. The model control group was given an equal amount of blank solvent. Oral gavage was used daily after grouping for 21 days.
Note: Wc: tumor weight of control group, WT: tumor weight of treatment group.
Data processing: Data were expressed as mean±standard deviation, and statistical methods were T-TEST two-tailed analysis for significant analysis.

Human recombinant LSD1 = Human recombinant LSD1 (Homo sapiens (Human), UniProt O60341)
Excerpt: LSD1 In Vitro Activity Assay
Instrument: microplate reader Envision™ (PerkinElmer, USA).

in vivo = conditions: mouse

human recombinant MAOB, sequence (P27338 whole entry): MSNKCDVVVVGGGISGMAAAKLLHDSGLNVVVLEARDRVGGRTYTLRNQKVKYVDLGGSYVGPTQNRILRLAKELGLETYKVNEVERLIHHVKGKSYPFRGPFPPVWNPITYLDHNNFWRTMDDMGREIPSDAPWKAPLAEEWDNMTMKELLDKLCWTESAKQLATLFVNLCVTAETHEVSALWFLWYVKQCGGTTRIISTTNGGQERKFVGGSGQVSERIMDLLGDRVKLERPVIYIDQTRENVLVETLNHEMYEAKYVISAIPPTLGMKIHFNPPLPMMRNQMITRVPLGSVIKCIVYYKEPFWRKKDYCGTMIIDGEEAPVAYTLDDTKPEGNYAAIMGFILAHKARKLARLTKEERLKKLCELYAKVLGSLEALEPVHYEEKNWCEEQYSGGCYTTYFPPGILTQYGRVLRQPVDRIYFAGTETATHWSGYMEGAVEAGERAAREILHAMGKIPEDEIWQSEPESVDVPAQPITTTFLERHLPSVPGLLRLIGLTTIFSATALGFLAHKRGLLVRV
Human recombinant MAOA, sequence (P21397 whole entry): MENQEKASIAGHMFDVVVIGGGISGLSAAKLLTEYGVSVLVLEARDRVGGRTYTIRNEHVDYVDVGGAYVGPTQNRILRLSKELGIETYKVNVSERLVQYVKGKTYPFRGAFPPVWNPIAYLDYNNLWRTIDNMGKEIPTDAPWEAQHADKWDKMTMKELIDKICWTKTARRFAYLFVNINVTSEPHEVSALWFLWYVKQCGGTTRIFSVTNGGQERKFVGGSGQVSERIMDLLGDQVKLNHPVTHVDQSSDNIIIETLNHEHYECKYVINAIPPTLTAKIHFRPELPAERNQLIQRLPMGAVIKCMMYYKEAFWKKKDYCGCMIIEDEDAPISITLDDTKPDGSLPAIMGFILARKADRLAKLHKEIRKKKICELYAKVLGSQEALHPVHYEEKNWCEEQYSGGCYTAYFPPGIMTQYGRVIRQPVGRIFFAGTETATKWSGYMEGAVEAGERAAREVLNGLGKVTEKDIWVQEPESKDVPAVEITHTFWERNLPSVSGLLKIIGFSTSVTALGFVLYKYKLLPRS

With `O=C(O)c1ccc(CN2CCC(CN[C@@H]3C[C@H]3c3ccccc3)CC2)cc1` [GSK-2879552] the IC50 (Human recombinant MAOA) was greater than 100 µM, the IC50 (human recombinant MAOB) was greater than 100 µM and the “Activation ratio (10 nM)” value ([1]; MV4-11, 10 nM) was 1.79 ± 0.37. The “Activation ratio (100 nM)” value ([1]; MV4-11, 100 nM) was 9.76 ± 2.23, the IC50 (leukemia cells MV4-11; 72 h, MV4-11, 3 days, read-out: MTS 3 D) was greater than 20 µM and the IC50 (leukemia cells MV4-11; 240 h, MV4-11, 10 days, read-out: MTS 10 D) was 1.03 ± 0.36 µM. For the same compound, the “Tumor inhibition rate (%)” value [2] was 51.96%, the “Tumor weight (g) mean ± SD” value [2] was 0.55 ± 0.55 g and the “Tumor weight (g), individual animals 1-5” value [2] was 0.22 g and 1.19 g and 0.00 g and 1.25 g and 0.10 g. For the same compound, the IC50 (Human recombinant LSD1) was 1.22 ± 0.327 µM, the AUC(0-inf) (in vivo; iv) was 4420 ng·h/mL and the AUC(0-t) (in vivo; iv) was 4410 ng·h/mL. For the same compound, the Cmax (in vivo; iv) was 7740 ng/mL, the MRT inf (in vivo; iv) was 0.96 h and the Tmax (in vivo; iv) was 0.083 h. For the same compound, the Vd (in vivo; iv) was 2.18 L/kg, the clearance (in vivo; iv) was 37.7 mL/min/kg and the half-life (in vivo; iv) was 4.36 h. For the same compound, the AUC(0-inf) (in vivo; po) was 5360 ng·h/mL, the AUC(0-t) (in vivo; po) was 5350 ng·h/mL and the Cmax (in vivo; po) was 9180 ng/mL. For the same compound, the MRT inf (in vivo; po) was 1.18 h, the Tmax (in vivo; po) was 0.167 h and the bioavailability (in vivo; po) was 60.7%. For the same compound, the half-life (in vivo; po) was 4.24 h.
